Target: T1, SMS2 (sphingomyelin synthase 2) (Mus musculus, UniProt Q9D4B1)
T1 construct: gene Sgms2; native enzyme in liver homogenate of SMS1 KO mice
T1 sequence (Q9D4B1 1-365): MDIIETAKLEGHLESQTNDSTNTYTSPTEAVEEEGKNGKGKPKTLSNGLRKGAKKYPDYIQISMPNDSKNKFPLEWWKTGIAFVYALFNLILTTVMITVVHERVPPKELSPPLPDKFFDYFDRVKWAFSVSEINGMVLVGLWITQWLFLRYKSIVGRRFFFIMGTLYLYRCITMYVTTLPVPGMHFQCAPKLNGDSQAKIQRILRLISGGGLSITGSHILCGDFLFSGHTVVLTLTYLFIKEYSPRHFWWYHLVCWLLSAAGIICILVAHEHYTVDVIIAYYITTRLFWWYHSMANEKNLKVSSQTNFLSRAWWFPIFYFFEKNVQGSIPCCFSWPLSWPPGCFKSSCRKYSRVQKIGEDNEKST
Assay: SMS activity assay in SMS1 KO mouse liver homogenate
Type: cell-based

Structure (SMILES): N#CC(Nc1ccccc1)c1ccccc1OCc1ccccc1 (stereo not shown) [Dy105, 2-(2-(benzyloxy)phenyl)-2-(phenylamino) acetonitrile]
- SMS activity assay in SMS1 KO mouse liver homogenate: we found the compound can inhibit SMS2 but not SMS1 activity (Fig. 3A and B) in the liver
